Drawing on patent US20230348376A1 (TEIJIN PHARMA LIMITED, priority 2020, published 2023), this text covers EC50 for 18 molecules.

One may read the EC50 as the concentration giving half of the maximal effect. A lower EC50 goes with a more potent agent.

The target in this assay is T1, human VDR (Homo sapiens, UniProt P11473).
T1 sequence (P11473 1-427): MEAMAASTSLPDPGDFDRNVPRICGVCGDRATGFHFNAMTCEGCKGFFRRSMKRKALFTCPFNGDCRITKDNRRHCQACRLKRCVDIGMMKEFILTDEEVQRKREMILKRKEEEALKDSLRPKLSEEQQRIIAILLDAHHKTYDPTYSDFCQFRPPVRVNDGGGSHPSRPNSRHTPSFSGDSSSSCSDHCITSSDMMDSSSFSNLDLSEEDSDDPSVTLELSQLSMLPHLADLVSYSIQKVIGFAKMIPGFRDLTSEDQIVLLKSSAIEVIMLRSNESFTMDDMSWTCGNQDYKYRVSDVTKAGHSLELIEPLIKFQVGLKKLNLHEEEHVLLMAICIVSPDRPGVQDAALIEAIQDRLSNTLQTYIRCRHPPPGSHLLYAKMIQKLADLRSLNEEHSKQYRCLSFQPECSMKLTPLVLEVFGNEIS
T1 sequence (P19793 1-462 partner): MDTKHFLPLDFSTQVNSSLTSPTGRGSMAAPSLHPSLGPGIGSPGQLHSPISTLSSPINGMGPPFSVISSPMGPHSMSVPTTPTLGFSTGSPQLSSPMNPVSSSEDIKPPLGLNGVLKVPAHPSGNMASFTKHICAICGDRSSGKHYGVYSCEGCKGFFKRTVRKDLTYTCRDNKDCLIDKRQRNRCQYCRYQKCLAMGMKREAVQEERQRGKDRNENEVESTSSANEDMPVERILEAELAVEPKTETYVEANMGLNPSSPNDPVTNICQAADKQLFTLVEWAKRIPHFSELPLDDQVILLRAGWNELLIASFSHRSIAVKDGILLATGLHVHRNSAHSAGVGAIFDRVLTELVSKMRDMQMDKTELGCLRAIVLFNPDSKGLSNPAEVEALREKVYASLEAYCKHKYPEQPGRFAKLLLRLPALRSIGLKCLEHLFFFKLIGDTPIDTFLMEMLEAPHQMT
Put plainly: Evaluation of VDR transcription activity in human osteoblasts (HOS cells), luciferase reporter. The conditions noted are these: Activity (EC50, VDR transcription activity), HOS cells transfected with human VDR, human RXRα and DR3 luciferase reporter; 21 hours. For orientation: Reporter assays use an easily measured gene product as a stand-in for the process of interest.
`C=C1/C(=C\C=C2/CCC[C@]3(C)[C@@H]([C@H](C)CN4CC[C@@H](C(F)F)C4)CC[C@@H]23)C[C@@H](O)[C@H](C)[C@@H]1O` [Compound B025, (1R,2S,3 S,Z)-5-(2-((1R,3aS,7aR,E)-1-((S)-1-((R)-3-(difluoromethyl)pyrrolidin-1-yl)propan-2-yl)-7a-methyloctahydro-4H-inden-4-ylidene)ethylidene)-2-methyl-4-methylenecyclohexane-1,3-diol] displayed a concentration for a half-maximal effect (EC50) of 10 to 100 nM.

`C=C1/C(=C\C=C2/CCC[C@]3(C)[C@@H]([C@H](C)CN4CC[C@H](C(C)(F)F)C4)CC[C@@H]23)C[C@@H](O)C[C@@H]1O` [Compound B028, (1R,3S,Z)-5-(2-((1R,3aS,7aR,E)-1-((S)-1-((S)-3-(1,1-difluoroethyl)pyrrolidin-1-yl)propan-2-yl)-7a-methyloctahydro-4H-inden-4-ylidene)ethylidene)-4-methylenecyclohexane-1,3-diol] displayed an EC50 below 1 nM.

Turning to `C[C@H](CN1CC[C@H](C(C)(F)F)C1)[C@H]1CC[C@H]2/C(=C/C=C3C[C@@H](O)C[C@H](O)C3)CCC[C@]12C` [Compound B030, (1R,3R)-5-(2-((1R,3aS,7aR,E)-1-((S)-1-((S)-3-(1,1-difluoroethyl)pyrrolidin-1-yl)propan-2-yl)-7a-methyloctahydro-4H-inden-4-ylidene)ethylidene)cyclohexane-1,3-diol], the EC50 fell in the range of 10 to 100 nM.

On to `C=C1[C@H](O)CC(=C/C=C2\CCC[C@]3(C)[C@@H]([C@H](C)CN4CC[C@H](C(C)(F)F)C4)CC[C@@H]23)C[C@H]1O` [Compound B031, (1R,3R)-5-(2-((1R,3aS,7aR,E)-1-((S)-1-((S)-3-(1,1-difluoroethyl)pyrrolidin-1-yl)propan-2-yl)-7a-methyloctahydro-4H-inden-4-ylidene)ethylidene)-2methylenecyclohexane-1,3-diol], for which the EC50 lay within 1 to 10 nM.

Molecule `C=C1/C(=C\C=C2/CCC[C@]3(C)[C@@H]([C@H](C)CN4CC[C@@H](C(C)(F)F)C4)CC[C@@H]23)C[C@@H](O)C[C@@H]1O` [Compound B032, (1R,3S,Z)-5-(2-((1R,3aS,7aR,E)-1-((S)-1-((R)-3-(1,1-difluoroethyl)pyrrolidin-1-yl)propan-2-yl)-7a-methyloctahydro-4H-inden-4-ylidene)ethylidene)-4-methylenecyclohexane-1,3-diol] displayed an EC50 of 1 to 10 nM.

Molecule `C=C1/C(=C\C=C2/CCC[C@]3(C)[C@@H]([C@H](C)CN4CC[C@@H](C(C)(F)F)C4)CC[C@@H]23)C[C@@H](O)[C@H](C)[C@@H]1O` [Compound B033, (1R,2S,3S,Z)-5-(2-((1R,3aS,7aR,E)-1-((S)-1-((R)-3-(1,1-difluoroethyl)pyrrolidin-1-yl)propan-2-yl)-7a-methyloctahydro-4H-inden-4-ylidene)ethylidene)-2-methyl-4-methylenecyclohexane-1,3-diol] had an EC50 of 1 to 10 nM.

`C=C1[C@H](O)CC(=C/C=C2\CCC[C@]3(C)[C@@H]([C@H](C)CN4CC[C@@H](C(C)(F)F)C4)CC[C@@H]23)C[C@H]1O` [Compound B035, (1R,3R)-5-(2-((1R,3aS,7aR,E)-1-((S)-1-((R)-3-(1,1-difluoroethyl)pyrrolidin-1-yl)propan-2-yl)-7a-methyloctahydro-4H-inden-4-ylidene)ethylidene)-2-methylenecyclohexane-1,3-diol]: the concentration for a half-maximal effect (EC50) was in the range of 1 to 10 nM.

Turning to `C=C1/C(=C\C=C2/CCC[C@]3(C)[C@@H]([C@H](C)CN4CC[C@H](CC(F)F)C4)CC[C@@H]23)C[C@@H](O)[C@H](C)[C@@H]1O` [Compound B038, (1R,2S,3S,Z)-5-(2-((1R,3aS,7aR,E)-1-((S)-1-((R)-3-(2,2-difluoroethyl)pyrrolidin-1-yl)propan-2-yl)-7a-methyloctahydro-4H-inden-4-ylidene)ethylidene)-2-methyl-4-methylenecyclohexane-1,3-diol], the EC50 was 10 to 100 nM.

The molecule `C=C1/C(=C\C=C2/CCC[C@]3(C)[C@@H]([C@H](C)CN4CC[C@@H](CC(F)F)C4)CC[C@@H]23)C[C@@H](O)[C@H](C)[C@@H]1O` [Compound B039, (1R,2S,3S,Z)-5-(2-((1R,3aS,7aR,E)-1-((S)-1-((S)-3-(2,2-difluoroethyl)pyrrolidin-1-yl)propan-2-yl)-7a-methyloctahydro-4H-inden-4-ylidene)ethylidene)-2-methyl-4-methylenecyclohexane-1,3-diol] showed an EC50 of 1 to 10 nM.

Take `C=C1[C@H](O)CC(=C/C=C2\CCC[C@]3(C)[C@@H]([C@H](C)CN4CC[C@H](OC(F)F)C4)CC[C@@H]23)C[C@H]1O` [Compound B049, (1R,3R)-5-(2-((1R,3aS,7aR,E)-1-((S)-1-((S)-3-(difluoromethoxy)pyrrolidin-1-yl)propan-2-yl)-7a-methyloctahydro-4H-inden-4-ylidene)ethylidene)-2-methylenecyclohexane-1,3-diol]: the EC50 lay in the range of 1 to 10 nM.

With `C=C1[C@H](O)CC(=C/C=C2\CCC[C@]3(C)[C@@H]([C@H](C)CN4CC[C@@H](OC(F)F)C4)CC[C@@H]23)C[C@H]1O` [Compound B050, (1R,3R)-5-(2-((1R,3aS,7aR,E)-1-((S)-1-((R)-3-(difluoromethoxy)pyrrolidin-1-yl)propan-2-yl)-7a-methyloctahydro-4H-inden-4-ylidene)ethylidene)-2-methylenecyclohexane-1,3-diol], the EC50 is 1 to 10 nM.

For the molecule `C[C@H](CN1CC[C@@H](OC(F)F)C1)[C@H]1CC[C@H]2/C(=C/C=C3C[C@@H](O)C[C@H](O)C3)CCC[C@]12C` [Compound B052, (1R,3R)-5-(2-((1R,3aS,7aR,E)-1-((S)-1-((R)-3-(difluoromethoxy)pyrrolidin-1-yl)propan-2-yl)-7a-methyloctahydro-4H-inden-4-ylidene)ethylidene)cyclohexane-1,3-diol], the EC50 lay in the range of 10 to 100 nM.

`C=C1/C(=C\C=C2/CCC[C@]3(C)[C@@H]([C@H](C)CN4CC[C@H](OCC(F)F)C4)CC[C@@H]23)C[C@@H](O)C[C@@H]1O` [Compound B053, (1R,3S,Z)-5-(2-((1R,3aS,7aR,E)-1-((S)-1-((S)-3-(2,2-difluoroethoxy)pyrrolidin-1-yl)propan-2-yl)-7a-methyloctahydro-4H-inden-4-ylidene)ethylidene)-4-methylenecyclohexane-1,3-diol] displayed an EC50 of 10 to 100 nM.

On to `C=C1/C(=C\C=C2/CCC[C@]3(C)[C@@H]([C@H](C)CN4CC[C@@H](OCC(F)F)C4)CC[C@@H]23)C[C@@H](O)C[C@@H]1O` [Compound B054, (1R,3S,Z)-5-(2-((1R,3aS,7aR,E)-1-((S)-1-((R)-3-(2,2-difluoroethoxy)pyrrolidin-1-yl)propan-2-yl)-7a-methyloctahydro-4H-inden-4-ylidene)ethylidene)-4-methylenecyclohexane-1,3-diol], for which the EC50 was 10 to 100 nM.

As to `C=C1[C@H](O)CC(=C/C=C2\CCC[C@]3(C)[C@@H]([C@H](C)CN4CC[C@@H](OCC(F)F)C4)CC[C@@H]23)C[C@H]1O` [Compound B056, (1R,3R)-5-(2-((1R,3aS,7aR,E)-1-((S)-1-((R)-3-(2,2-difluoroethoxy)pyrrolidin-1-yl)propan-2-yl)-7a-methyloctahydro-4H-inden-4-ylidene)ethylidene)-2-methylenecyclohexane-1,3-diol], the EC50 was in the range of 10 to 100 nM.

For `C=C1/C(=C\C=C2/CCC[C@]3(C)[C@@H]([C@H](C)CN4CC[C@@H](CCC(F)F)C4)CC[C@@H]23)C[C@@H](O)C[C@@H]1O` [Compound B060, (1R,3S,Z)-5-(2-((1R,3aS,7aR,E)-1-((S)-1-((R)-3-(3,3-difluoropropyl)pyrrolidin-1-yl)propan-2-yl)-7a-methyloctahydro-4H-inden-4-ylidene)ethylidene)-4-methylenecyclohexane-1,3-diol], the EC50 fell in the range of 10 to 100 nM.

For `C[C@H](CN1CC[C@H](CCC(F)F)C1)[C@H]1CC[C@H]2/C(=C/C=C3C[C@@H](O)C[C@H](O)C3)CCC[C@]12C` [Compound B063, (1R,3R)-5-(2-((1R,3aS,7aR,E)-1-((S)-1-((S)-3-(3,3-difluoropropyl)pyrrolidin-1-yl)propan-2-yl)-7a-methyloctahydro-4H-inden-4-ylidene)ethylidene)cyclohexane-1,3-diol], the EC50 lay in the range of 10 to 100 nM.

Turning to `C=C1/C(=C\C=C2/CCC[C@]3(C)[C@@H]([C@H](C)CN4CC[C@H](OC(F)(F)F)C4)CC[C@@H]23)C[C@@H](O)C[C@@H]1O` [Compound B065, (1R,3S,Z)-5-(2-((1R,3aS,7aR,E)-7a-methyl-1-((S)-1-((S)-3-(trifluoromethoxy)pyrrolidin-1-yl)propan-2-yl)octahydro-4H-inden-4-ylidene)ethylidene)-4-methylenecyclohexane-1,3-diol], the EC50 lay within 10 to 100 nM.
